# Data from US20150105252A1, “SUBSTITUTED PYRAZOLES AS HERBICIDES” (E I DU PONT DE NEMOURS AND COMPANY, priority 2013, published 2015).
# Experiments:
# crabgrass, large [1] = experiment: Test C postemergence; type: in vivo, Digitaria sanguinalis; conditions: for Crabgrass, Large plant response rating: scale 0 to 100
# In short: (§1)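 Visual control ratings on a 0–100 scale (100 = complete control) made against untreated controls after 13 to 15 days in greenhouse. Compounds applied in surfactant-containing solvent mixture, either preemergence to loam/sand-sown seeds or postemergence to 1- to 4-leaf plants (2–18 cm) in peat medium.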
# johnsongrass = experiment: Test C preemergence; type: in vivo, Sorghum halepense; conditions: for Johnsongrass plant response rating / Plant response rating, Johnsongrass: preemergence; for Plant response rating, Johnsongrass: scale 0 to 100, 0 = no effect, 100 = complete control
# From the text: (§2) Seeds of plant species selected from blackgrass (Alopecurus myosuroides), ryegrass, Italian (Italian ryegrass, Lolium multiflorum), wheat (winter wheat, Triticum aestivum), galium (catchweed bedstraw, Galium aparine), corn (Zea mays), crabgrass, large (large crabgrass, Digitaria sanguinalis), foxtail, giant (giant foxtail, Setaria faberii), johnsongrass (Sorghum halepense), lambsquarters (Chenopodium album), morningglory (Ipomoea coccinea), nutsedge, yellow (yellow nutsedge, Cyperus esculentus), pigweed (redroot pigweed, Amaranthus retroflexus), ragweed (common ragweed, Ambrosia elation), soybean (Glycine max), barnyardgrass (Echinochloa crus-galli), oilseed rape (Brassica napus), waterhemp (common waterhemp, Amaranthus rudis), oat, wild (wild oat, Avena fatua), kochia (Kochia scoparia), Surinam grass (Brachiaria decumbens), foxtail, green (green foxtail, Setaria viridis), goosegrass (Eleusine indica), bromegrass, downy (downy bromegrass, Bromus tectorum), nightshade (eastern black nightshade, Solanum ptycanthum), cocklebur (common cocklebur, Xanthium strumarium), cupgrass, woolly (woolly cupgrass, Eriochloa villosa), bermudagrass (Cynodon dactylon), sunflower, (common oilseed sunflower, Helianthus annuus), Russian thistle (Salsola kali), and velvetleaf (Abutilon theophrasti) were planted into a blend of loam soil and sand and treated preemergence with test chemicals formulated in a non-phytotoxic solvent mixture which included a surfactant.
# (§3) At the same time, plants selected from these crop and weed species and also chickweed (common chickweed, Stellaria media), canarygrass (littleseed canarygrass, Phalaris minor), and deadnettle (henbit deadnettle, Lamium amplexicaule), were planted in pots containing Redi-Earth® planting medium (Scotts Company, 14111 Scottslawn Road, Marysville, Ohio 43041) comprising spaghnum peat moss, vermiculite, wetting agent and starter nutrients and treated with postemergence applications of test chemicals formulated in the same manner. Plants ranged in height from 2 to 18 cm (1- to 4-leaf stage) for postemergence treatments. Treated plants and controls were maintained in a greenhouse for 13 to 15 days, after which time all species were compared to controls and visually evaluated. Plant response ratings, summarized in Table C, are based on a scale of 0 to 100 where 0 is no effect and 100 is complete control. A dash (-) response means no test result.
# wheat [2] = experiment: Test A preemergence; type: in vivo, Triticum aestivum
# In short: (§4)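 Visual injury ratings, 0 = no effect to 100 = complete control, taken about 10 days after treatment against untreated controls. Test chemicals, in a non-phytotoxic surfactant-containing solvent, were sprayed onto soil preemergence or onto one- to two-leaf plants (2–10 cm) postemergence, in loam–sand soil under greenhouse conditions.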
# velvetleaf = experiment: Test A preemergence; type: in vivo, Abutilon theophrasti
# In short: as §4
# corn = experiment: Test C preemergence; type: in vivo, Zea mays; conditions: for Corn plant response rating / Plant response rating, Corn: preemergence; for Plant response rating, Corn: scale 0 to 100, 0 = no effect, 100 = complete control
# In short: as §1
# blackgrass = experiment: Test C postemergence; type: in vivo, Alopecurus myosuroides; conditions: for Blackgrass plant response rating: scale 0 to 100
# From the text: as §2, §3
# crabgrass, large [3] = experiment: Test A preemergence; type: in vivo, Digitaria sanguinalis
# In short: as §4
# sedge, umbrella = experiment: Test B flood; type: in vivo, Cyperus difformis; conditions: 250 g ai/ha, visual rating on 0 to 100 scale (0 no effect, 100 complete control), 13 to 15 days
# In short: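 Greenhouse assay lasting 13 to 15 days. Treatment was into water flooding pots 3 cm deep, at the 2-leaf stage, with that level sustained afterwards. Scores compare treated with control plants visually, 100 denoting complete control and 0 no effect; a dash marks no test result.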
# ragweed = experiment: Test C preemergence; type: in vivo, Ambrosia elation; conditions: for Ragweed plant response rating / Plant response rating, Ragweed: preemergence; for Plant response rating, Ragweed: scale 0 to 100, 0 = no effect, 100 = complete control
# From the text: as §2, §3
# foxtail, giant [4] = experiment: Test C postemergence; type: in vivo, Setaria faberii; conditions: for Foxtail, Giant plant response rating: scale 0 to 100
# From the text: as §2, §3
# foxtail, giant [5] = experiment: Test A postemergence; type: in vivo, Setaria faberii
# In short: as §4
# wheat [6] = experiment: Test C preemergence; type: in vivo, Triticum aestivum; conditions: for Wheat plant response rating / Plant response rating, Wheat: preemergence; for Plant response rating, Wheat: scale 0 to 100, 0 = no effect, 100 = complete control
# From the text: as §2, §3
# [7] = postemergence, 250 g ai/ha, scale 0 to 100 (0 no effect, 100 complete control)
# [8] = postemergence, 125 g ai/ha, scale 0 to 100, 0 no effect, 100 complete control
# [9] = 31 g ai/ha, scale 0 to 100 (0 no effect, 100 complete control), 13 to 15 days
# [10] = 125 g ai/ha, scale 0 to 100, 0 is no effect, 100 is complete control
# [11] = Preemergence, 1000 g ai/ha, 0 to 100 scale, 0 no effect, 100 complete control
# [12] = preemergence, 500 g ai/ha, visual injury after approx. 10 days, 0 to 100 scale (0 no effect, 100 complete control)
# [13] = 31 g ai/ha, visual rating, scale 0 to 100 (0 no effect, 100 complete control), 13 to 15 days
# [14] = 62 g ai/ha, scale 0 to 100 (0 no effect, 100 complete control), 13 to 15 days
# [15] = 250 g ai/ha, scale 0 to 100, 0 is no effect, 100 is complete control
# [16] = preemergence, 125 g ai/ha, visual injury approx. 10 days after treatment
structure (smiles),measurement,setting,value
Cc1cc(C(=O)NCC(F)(F)F)nn1Cc1ccnc(C(F)(F)F)c1 [Compound 74],"Crabgrass, Large plant response rating","crabgrass, large [1]; Postemergence, 31 g ai/ha",10
same,"Crabgrass, Large plant response rating","crabgrass, large [1]; postemergence, 62 g ai/ha",20
same,"Plant response rating, Crabgrass, Large","crabgrass, large [1]; [7]",75
same,"Plant response rating, Crabgrass, Large","crabgrass, large [1]; [8]",30
same,"Plant response rating (scale of 0 to 100), Johnsongrass","johnsongrass; Preemergence, 250 g ai/ha",100
same,Johnsongrass plant response rating,johnsongrass; [9],10
same,"Plant response rating, Johnsongrass","johnsongrass; 62 g ai/ha, 13 to 15 days",25
same,Johnsongrass plant response rating,johnsongrass; [10],98
same,Wheat plant response rating,wheat [2]; [11],100
same,Wheat plant response rating,wheat [2]; [12],30
same,Velvetleaf plant response rating,velvetleaf; [11],100
same,"Plant response rating (scale of 0 to 100), Corn","corn; Preemergence, 250 g ai/ha",98
same,Corn plant response rating,corn; [9],10
same,"Plant response rating, Corn","corn; 62 g ai/ha, 13 to 15 days",60
same,Corn plant response rating,corn; [10],75
same,Blackgrass plant response rating,"blackgrass; Postemergence, 31 g ai/ha",0
same,Blackgrass plant response rating,"blackgrass; postemergence, 62 g ai/ha",0
same,"Plant response rating, Blackgrass",blackgrass; [7],5
same,"Plant response rating, Blackgrass",blackgrass; [8],5
same,"Crabgrass, Large plant response rating","crabgrass, large [3]; [11]",100
same,"Plant response rating, Sedge, Umbrella","sedge, umbrella",65
same,"Plant response rating (scale of 0 to 100), Ragweed","ragweed; Preemergence, 250 g ai/ha",90
same,Ragweed plant response rating,ragweed; [9],30
same,"Plant response rating, Ragweed","ragweed; 62 g ai/ha, 13 to 15 days",60
same,Ragweed plant response rating,ragweed; [10],80
same,"Foxtail, Giant plant response rating","foxtail, giant [4]; Postemergence, 31 g ai/ha",5
same,"Foxtail, Giant plant response rating","foxtail, giant [4]; postemergence, 62 g ai/ha",10
same,"Plant response rating, Foxtail, Giant","foxtail, giant [4]; [7]",25
same,"Plant response rating, Foxtail, Giant","foxtail, giant [4]; [8]",10
same,"Foxtail, Giant plant response rating","foxtail, giant [5]; Postemergence, 1000 g ai/ha, visual rating after approx. 10 days, 0 to 100 scale (0 no effect, 100 complete control)",90
same,"Plant response rating (scale of 0 to 100), Wheat","wheat [6]; Preemergence, 250 g ai/ha",90
same,Wheat plant response rating,wheat [6]; [9],0
same,"Plant response rating, Wheat","wheat [6]; 62 g ai/ha, 13 to 15 days",5
same,Wheat plant response rating,wheat [6]; [10],15
O=C(NCC(F)(F)F)c1cc(CCF)n(Cc2ccnc(C(F)(F)F)c2)n1 [Compound 175],Johnsongrass plant response rating,johnsongrass; [13],0
same,Johnsongrass plant response rating,johnsongrass; [14],35
same,"Plant response rating, Johnsongrass","johnsongrass; 125 g ai/ha, 13 to 15 days",70
same,Johnsongrass plant response rating,johnsongrass; [15],100
same,Wheat plant response rating (0 to 100 scale),wheat [2]; [16],20
same,Wheat plant response rating,wheat [2]; [12],100
same,Velvetleaf plant response rating (0 to 100 scale),velvetleaf; [16],40
same,Velvetleaf plant response rating,velvetleaf; [12],100
same,Corn plant response rating,corn; [13],20
same,Corn plant response rating,corn; [14],30
same,"Plant response rating, Corn","corn; 125 g ai/ha, 13 to 15 days",85
same,Corn plant response rating,corn; [15],90
same,"Crabgrass, Large plant response rating (0 to 100 scale)","crabgrass, large [3]; [16]",100
same,"Crabgrass, Large plant response rating","crabgrass, large [3]; [12]",100
same,"Plant response rating, Sedge, Umbrella","sedge, umbrella",85
same,Ragweed plant response rating,ragweed; [13],80
same,Ragweed plant response rating,ragweed; [14],90
same,"Plant response rating, Ragweed","ragweed; 125 g ai/ha, 13 to 15 days",98
same,Ragweed plant response rating,ragweed; [15],95
same,"Foxtail, Giant plant response rating","foxtail, giant [5]; Postemergence, 500 g ai/ha, 0 to 100 scale (0 no effect, 100 complete control)",90
same,"Foxtail, Giant plant response rating","foxtail, giant [5]; postemergence, 125 g ai/ha, about 10 days, visual rating on 0 to 100 scale (0 no effect, 100 complete control)",80
same,Wheat plant response rating,wheat [6]; [13],0
same,Wheat plant response rating,wheat [6]; [14],50
same,"Plant response rating, Wheat","wheat [6]; 125 g ai/ha, 13 to 15 days",85
same,Wheat plant response rating,wheat [6]; [15],90
